Assay results: a melting point compilation (Tetko et al.; mined from patent text by program, amines drawn as free bases though some values may be those of a salt)

melting point [°C] | Structure (SMILES)
103 to 106 | CN(C)C(=O)COc1ccc2c(c1)C[C@@H](NC[C@@H](O)c1ccc(OCc3ccccc3)cc1)CC2
133 to 136 | CCc1cccc(C)c1CNc1cc(C(=O)N(C)C)nc2c1nc(C)n2C
176 | Cn1ncnc1COc1nn2c(-c3ccccc3F)nncc2c1-c1cccc(F)c1
206 to 207 | O=C(Nc1ccc(Cl)cn1)c1ccccc1O
295 to 296 | O=c1[nH]c(=Cc2ccccc2[N+](=O)[O-])c(=O)[nH]c1=Cc1ccc(OCc2ccccc2)cn1
146 to 147 | CC(C)(C1=NOS(=O)N1)c1ccc2ccccc2c1 (stereo not drawn)
84 to 85 | Cc1cc(-c2oncc2CCl)ccc1Cl
132 to 134 | O=C(O)c1nc(I)c2cc(Cc3ccc(F)cc3)cnc2c1OCc1ccccc1
104 to 106 | O=C1c2cc(OCc3ccc4ccccc4n3)ccc2CC1Cc1ccccc1 (stereo not drawn)
162 | CN(C)CCC1Cc2ccccc2C(C)(O)c2ccccc21 (stereo not drawn)
172 to 174 | O=C(c1ccc(F)cc1)N1CCN(S(=O)(=O)c2ccc(Nc3ccnc4cc(C(F)(F)F)ccc34)cc2)CC1
141 to 143 | CN(C)C(=S)Oc1ccc(Br)cc1C=O
158 to 159 | CCc1ccnc2c([N+](=O)[O-])cc(OC)cc12
158 to 160 | CN1C(c2ccc(Cl)cc2)=C(C#N)CC1C(F)(F)F (stereo not drawn)
168 to 169 | O=C(c1ccc(Cl)c(Cl)c1)N1CCC(Br)C(c2ccccc2)=N1 (stereo not drawn)
180 to 182 | CC(=O)N1CCc2ccc(NS(=O)(=O)c3ccccc3)cc2C1
112 to 113 | CCCC(=O)Oc1ccc(C2=NNC(=O)CC2C)cc1 (stereo not drawn)
> 330 | Nc1cc2[nH]c(=O)c(=O)[nH]c2cc1[N+](=O)[O-]
207 to 209 | Nc1ccc(S(=O)(=O)c2cccc3cnccc23)cc1
90 to 92 | Clc1cncc(Cl)c1C1=NC(c2ccc(I)cc2)CO1 (stereo not drawn)

melting point [°C] | Structure (SMILES)
152 to 155 | Cc1c(NC(=O)c2ccc(OCC3CC3)cc2)ccc2cc(CN3CCC(C)(O)CC3)n(C)c12
216 to 218 | CCNc1cccc2c(S(=O)(=O)Nc3ncc(Br)nc3OC)cccc12
213 to 216 | O=C(O)C1=Cc2cc(Cl)c(Oc3cccnc3Cl)cc2OC1C(F)(F)F (stereo not drawn)
165 to 166 | CS(=O)(=O)c1ccc(-c2cc(C=O)sc2-c2ccc(F)cc2)cc1
192 | Cc1cc(NC(=O)Cc2cccs2)nc(C)c1Br
220 to 222 | CC(=O)Nc1cccc(S(=O)(=O)c2cc(O)c(O)cc2C)c1
207 to 208 | COc1ccc(C2=NNC(=O)CC2)cc1CO
> 200 | Cc1nc(N2CCc3ccccc3CC2)c(C#N)c(=O)n1OCC(F)(F)F
141 to 142 | COC(=O)C(C)(C)NC(=O)Nc1ccc(Cl)c(C(F)(F)F)c1
167 to 169 | CSc1ccc(Nc2cscc2C#N)c([N+](=O)[O-])c1
179 to 181 | O=[N+]([O-])c1cc(Cl)c(Cl)cc1N[C@@H]1C[C@H](CO)[C@@H](O)[C@H]1O
162 to 165 | COc1cc2c(cc1OC)[C@@H]1CCCC[C@@H]1N=C2c1ccc([N+](=O)[O-])c([N+](=O)[O-])c1
46 to 49 | CC(=O)CC(=O)c1ccccn1
154 | CCn1nc(-c2ccc(F)cc2)c(C(C)=O)c(Nc2cccc3cccnc23)c1=O
170 to 171 | O=C(O)C1CCc2ccc(O)cc2C1 (stereo not drawn)
235 to 242 | Cc1cc(-n2ccc(=O)[nH]c2=O)cc(Cl)c1S(=O)(=O)c1ccc(Cl)cc1
93 to 94 | CCOC(=O)CC(=O)c1ccc(NC(C)=O)cc1
48 to 50 | CCn1c(Cl)nc2ccccc21
252 to 254 | Nc1ccc(-c2ccncc2)nc1N

The next lines start with the compound.

Structure (SMILES) | melting point [°C]
CCCCN1CCC(CNC(=O)c2ccc(N)n3cc(CCC)nc23)CC1 | 172
CCCCn1c(C)c(Br)c(=O)c(C(=O)Nc2c(CC)cccc2CC)c1C | 158 to 160
Cc1[nH]nc(C(F)(F)F)c1-c1cncc(OC2SCC(O)C(O)C2O)c1 (stereo not drawn) | 234
COc1cc2c(c(Cl)c1Cl)C(=O)C(CCOC(C)=O)=C2 | 134 to 136
O=C(Nc1ccc2[nH]ncc2c1)O[C@@H](c1cccc(I)c1)[C@@H]1CCCCN1 | 126
Cc1ccc2c(c1)C1CNCCC1N2 (stereo not drawn) | 73 to 75
CCn1ccc2c(ccc3[nH]cc(CCN)c32)c1=O | 224 to 227
CCc1cc(C(=O)O)ccc1C(N)C(=O)O (stereo not drawn) | 189 to 193
O=C(Nc1cc(C(F)(F)F)cc(C(F)(F)F)c1)C1C(=O)C2CCC(CC2)C1=O (stereo not drawn) | 286 to 288
CCCn1cc(Cc2ccc(C(=O)OC)cc2OC)c2cc(CCCC(=O)O)ccc21 | 106 to 109
COc1cc(N)c(Cl)cc1C(=O)NCC1CCN(CCCCCOc2ccc(F)cc2)CC1 | 105 to 107
CN(C)c1cccc(N(C)C)c1NC(=O)N(Cc1ccc(O)cc1)CC1(c2ccccn2)CCCCC1 | 162 to 166
NCCCCn1c(-c2ccccc2)nc2c(N)nc3ccccc3c21 | 175 to 177
CCCc1nc2c(c(C)c(C)n3nnnc23)n1CC(C)(C)NS(C)(=O)=O | 190 to 192
O=C(Oc1ccc(Oc2ccc(C(F)(F)F)cn2)cc1)N1CCN(CCc2cccnc2)CC1 | 173 to 179
C=CCc1cc2c(ccc(=O)n2CC=C(C)C)c(CC=C)c1O | 187 to 189
CCc1nc(C)ccc1OC1SCC(OC(C)=O)C(OC(C)=O)C1OC(C)=O (stereo not drawn) | 123 to 127
CC(=O)N=c1[nH]c2ccccc2n1C1CCNCC1 | 164
CCCCS(=O)(=O)Nc1ccc(CCCCOCCCCCCNCC(O)c2ccc(O)c(CO)c2)cc1 (stereo not drawn) | 81 to 84
CC(=O)C(=O)N1CCC[C@H]1C(=O)O | 88 to 89

Structure (SMILES) | melting point [°C]
COc1cc(OC(C)C)cc2c1-c1c(OC(C)C)cccc1C2=O | 74 to 75
CS(=O)c1ccc(OCCCOc2cc(OCCCCCCCCCCCCOc3ccccc3)cc(N(CC(=O)O)CC(=O)O)c2)cc1 (stereo not drawn) | 106 to 108
Nc1ccc(-c2cccc(Cl)c2)cc1C(O)(C1CC1)C1CC1 | 90 to 92
O=[N+]([O-])N=C1SCCN1Cc1ccc(Cl)nc1 | 137 to 138
CN(C=O)C1(C(=O)O)CC1 | 210
CN1CCN2c3ccccc3Cn3cccc3C2C1 (stereo not drawn) | 98 to 100
CCCCCC(=O)CCC(C)=O | 18
COC(=O)Cc1cn(C)nc1O | 118 to 119
NC(=O)c1cc(C(=O)CN(Cc2ccccc2)Cc2ccccc2)ccc1OCCCCOC1CCCCO1 (stereo not drawn) | 118 to 123
CC1(C)N(Cc2ccc(C(=O)Cl)cc2)C(=O)C(=O)N1Cc1ccc(C(=O)Cl)cc1 | 232 to 235
CCOC(=O)c1c(C)cc2[nH]c(=O)n(-c3ccccc3C(F)(F)F)c(=O)c2c1C | 175 to 176
COc1cc(OC)nc(NC(=O)CC(F)=C(F)F)n1 | 127 to 130
CC(C)(C)OC(=O)N1CCC(C(=O)c2nc3ccccc3n2Cc2ccc(F)cc2)CC1 | 114 to 115
CCc1cc(C(=O)c2ccccc2Cl)c(-n2c(C)nnc2Cc2cccc(OC(N)=O)c2Cl)s1 | 134 to 136
CC(C)c1ccc(O)c(C(C)C)c1NC(=O)CN1CCN(CCSc2nc3ccccc3o2)CC1 | 96 to 98
CNC(=O)Nc1cc(C(Cl)(Cl)Cl)ccn1 | 192 to 195
O=c1[nH]c2c([nH]c1=O)C(N1CCOCC1)c1ccccc1-2 (stereo not drawn) | 265 to 267
COCCOC(=O)c1ccc(C)c(-n2c(C)cc(OCc3ccccc3CNC(=O)Nc3cc(C(C)(C)C)nn3-c3cccc(OCCO)c3)c(Cl)c2=O)c1 | 143 to 145
COc1cc(OC)c(C(=O)N(C)OC)cc1Cl | 97 to 99
CCc1cn([C@@H]2CO[C@H](CO)O2)c(=O)[nH]c1=O | 132 to 133

Structure (SMILES) | melting point [°C]
CC(C)Cn1c(CNC(=O)OC(C)(C)C)c(-c2ccc(F)cc2)c2cc(OCc3ccccc3)ccc2c1=O | 184 to 185
C=C1C[C@@H]2[C@H](CC[C@]3(C)C(=O)CC[C@@H]23)[C@@]2(C)CCC(=O)C(OC)=C12 | 196 to 198
c1cc(-c2nc(COC3CCCCO3)no2)sc1CN1CCCCCC1 (stereo not drawn) | 79 to 81
CC(=O)C12CCC(CC1)CC2(C)O (stereo not drawn) | 43 to 44
CN(Cc1cc(C(F)(F)F)cc(C(F)(F)F)c1)C(=O)c1ncc2ccccc2c1-c1ccc(F)cc1 | 134 to 135
CCOC(=O)c1ccc(OCCCN2C(=O)c3ccccc3C2=O)cc1 | 106 to 108
CNC(=O)NCc1cccc2c1S(=O)(=O)N=C2C1=C(O)C(C(C)(C)C)N(Cc2ccc(F)cc2)C1=O (stereo not drawn) | > 250
CC(C)(C)OC(=O)CC(NC(=O)C1CCCN2C(=O)CCC(NS(C)(=O)=O)C(=O)N12)C(=O)COC(=O)c1ccccc1Oc1ccccc1 (stereo not drawn) | 85 to 100
CCCC1=Cc2c(c(C)c(C)c3oc(C(=O)O)cc23)C1=O | 242
Cn1cc(-c2cccc(-n3ncc4cc(C(C)(C)C)cc(F)c4c3=O)c2CO)cc(Nc2ccc(C(C)(C)O)cn2)c1=O | 200 to 205
O=NN(CCCl)C(=O)NCCOC(=O)c1cccnc1 | 63 to 64
C[C@H](NC(=O)c1cc(Cl)c(Cl)cc1C(=O)O)C(=O)N1CCC[C@H]1C(=O)O | 134 to 137
CCCCCCC[C@H]1CC[C@H](CCc2ccc(-c3ccc(Br)cc3F)cc2)CC1 | 54
CCCCOCCOc1ccc(-c2ccc3c(c2)C=C(C(=O)Nc2ccc(S(=O)CCn4cnnc4)cc2)CCN3CC(C)C)cc1 (stereo not drawn) | 168 to 170
CN(C(=O)C1CCC1)c1cccc(-c2ccnc3c(C(=O)c4ccccc4)cnn23)c1 | 168 to 170
COc1ccc(-c2cc(=O)n(Cc3ccc(Cl)c(Cl)c3)nc2-c2ccc(OC)cc2)cc1 | 108 to 110
CCn1cc(C(=O)O)c(=O)c2ccc(N3CCN(C)CC3)cc21 | 215
O=c1ccc(-c2c(-c3ccccc3)nn3ccccc23)nn1C1CCCC(O)C1 (stereo not drawn) | 117 to 118
O=S(=O)(NCC1CCN(CCCOc2ccc(F)cc2)CC1)c1cccc2cnccc12 | 123 to 125
